{"source": "ChEMBL document CHEMBL1148830", "about": "“Discovery and investigation of antiproliferative and apoptosis-inducing properties of new heterocyclic podophyllotoxin analogues accessible by a one-step multicomponent synthesis” (2007)", "key": {"[1]": {"tested_on": "Jurkat", "test": "Antiproliferative activity against human Jurkat cells assessed as cell viability at 5 uM after 48 hrs by MTT assay", "type": "functional", "conditions": "read-out: Activity"}, "[2]": {"tested_on": "Jurkat", "test": "Induction of apoptosis in Jurkat cells assessed as cell viability at 5 uM after 48 hrs by flow cytometry Annexin-V/propidium iodide assay", "type": "functional", "conditions": "Homo sapiens, read-out: Activity"}, "[3]": {"tested_on": "Jurkat", "test": "Induction of apoptosis in Jurkat cells assessed as cell viability at 50 uM after 48 hrs by flow cytometry Annexin-V/propidium iodide assay", "type": "functional", "conditions": "Homo sapiens, read-out: Activity"}, "[4]": {"tested_on": "Jurkat", "test": "Induction of apoptosis in Jurkat cells after 24 hrs by flow cytometric Annexin-V/propidium iodide assay", "type": "functional, cell-based", "conditions": "Homo sapiens"}, "[5]": {"test": "Antiproliferative activity against human MCF7/AZ cells assessed as cell viability at 5 uM after 48 hrs by MTT assay relative to control", "type": "functional", "conditions": "read-out: Activity"}, "[6]": {"tested_on": "HeLa", "test": "Antiproliferative activity against HeLa cells assessed as cell viability at 50 uM after 48 hrs by MTT assay", "type": "functional", "conditions": "Homo sapiens, read-out: Activity"}, "[7]": {"tested_on": "Lymphocyte", "test": "Induction of apoptosis in human whole blood lymphocytes after 24 hrs by flow cytometric Annexin-V/propidium iodide assay", "type": "functional, cell-based"}, "[8]": {"tested_on": "HeLa", "test": "Antiproliferative activity against HeLa cells assessed as cell viability at 5 uM after 48 hrs by MTT assay relative to control", "type": "functional", "conditions": "Homo sapiens, read-out: Activity"}, "[9]": {"tested_on": "HeLa", "test": "Growth inhibition of HeLa cells after 48 hrs by MTT assay", "type": "functional", "conditions": "Homo sapiens"}, "[10]": {"tested_on": "Jurkat", "test": "Antiproliferative activity against human Jurkat cells assessed as cell viability at 50 uM after 48 hrs by MTT assay", "type": "functional", "conditions": "read-out: Activity"}, "[11]": {"tested_on": "Jurkat", "test": "Effect on apoptosis in Jurkat cells assessed as DNA laddering after 24 hrs at 1 uM", "type": "functional, cell-based", "conditions": "Homo sapiens"}, "[12]": {"test": "Antiproliferative activity against human MCF7/AZ cells assessed as cell viability at 50 uM after 48 hrs by MTT assay", "type": "functional", "conditions": "read-out: Activity"}}, "note": "Activity calls are given as the source filed them. No cut-off for these calls is given here."}
{"smiles": "COc1cc([C@@H]2c3cc4c(cc3[C@@H](O[C@@H]3O[C@@H]5CO[C@@H](C)O[C@H]5[C@H](O)[C@H]3O)[C@H]3COC(=O)[C@H]23)OCO4)cc(OC)c1O", "note": "[ETOPOSIDE]", "values": [{"measurement": "viability at 5 µM", "setting": "[1]", "result": 75, "unit": "%"}, {"measurement": "viability at 5 µM", "setting": "[2]", "result": 4, "unit": "%"}, {"measurement": "viability at 50 µM", "setting": "[3]", "result": 61, "unit": "%"}, {"measurement": "Activity", "setting": "[4]", "result": "Active"}, {"measurement": "viability at 5 µM", "setting": "[5]", "result": 76, "unit": "%"}, {"measurement": "viability at 50 µM", "setting": "[6]", "result": 15, "unit": "%"}, {"measurement": "Activity", "setting": "[7]", "result": "inactive"}, {"measurement": "viability at 5 µM", "setting": "[8]", "result": 91, "unit": "%"}, {"measurement": "GI50", "setting": "[9]", "result": 8, "unit": "µM"}, {"measurement": "viability at 50 µM", "setting": "[10]", "result": 50, "unit": "%"}, {"measurement": "Activity", "setting": "[11]", "result": "inactive"}, {"measurement": "viability at 50 µM", "setting": "[12]", "result": 57, "unit": "%"}]}
